How the values were obtained:
[1] = test system: osteoblasts (monolayer culture); test: Metabolic activity (MTT), monolayer osteoblast cell culture; format: cell-based, rat; conditions: for metabolic activity measured by the MTT reaction / MTT reaction: preliminary
Protocol: This isolation technique is based on the ability of osteoblasts to migrate from bone onto a substratum. Parietal and frontal calvariae (4 per animal) were aseptically explanted from 6 day-old IcoIbm rats. The calvariae were placed in Tyrode's balanced salt solution, calcium and magnesium free (TESS). The periosteum was enzymatically removed with 0.05% trypsin and 0.02% collagenase A (0.76 U/mg) dissolved in TBSS (40 calvaria/20 ml). The calvariae were shaken for 70 minutes in a waterbath at 37° C. They were washed with TESS and then transferred to 60 mm culture dishes (40 calvariae/dish) containing 5 ml of 0.02% collagenase A (0.76 U/mg) in culture medium BGJb Fitton-Jackson modification and placed in the incubator for 4 hours. The calvariae were then washed with culture medium B supplemented with 10% foetal calf serum (FCS). The calvariae were transferred into 60 mm culture dishes (4 frontal and 4 parietal/dish). The growth medium supplemented with 10% FCS and 50 μg/ml ascorbate was completely changed every 48 hours. The culture was kept for 3 weeks.
After 3 weeks the migrated cells were harvested. The dish was washed with TESS, and 5 ml of TESS containing 0.05% trypsin and 0.02% collagenase A (0.76 U/mg) was added. After 1 hour in the incubator, the dish was washed with culture medium BGJb supplemented with 10% FCS. The dishes containing the calvariae and cells were rinsed with serum containing media BGJb. The cells obtained were filtered through a 40 μm nylon mesh to remove bone debris and cell aggregates. The suspended cells were centrifuged at 600 g for 5 minutes. The cell pellet was resuspended in serum containing medium BGJb and centrifuged. The viability of the resuspended cells was examined by the dye exclusion of 0.4% trypan blue, and the cells were counted in a haeinocytometer. The inoculation densities were 2·10^5/10 cm^2 for monolayer and 2·10^5/30 μl for micromasses. The micromass cultures were kept for 1 hour in the incubator before 2 ml growth medium was added.
All the cultures were kept at 37° C. in a humidified atmosphere of 5% CO2, 95% air. All culture media were supplemented with 50 μg/ml ascorbate. To analyze the collagen types, 60 μg/ml beta-aminopropionitrile (beta-APN) was added to the culture medium. During cell isolation and inoculation, no ascorbate was used to increase plating efficiency. No antibiotics and no beta-glycerophosphate were added. The media were completely changed every 48 hours (60 mm culture dish 5 ml; 35 mm culture dish 2 ml).
The Böhringer Cell Proliferation Kit I (MTT) was used for the assay, but we used a different solvent to dissolve the MTT crystals.
Originally, Mosmann, 1983 described the general principle involved in the detection of cell growth/cell death as indicated by the conversion of the tetrazolium salt (MTT) to the colored formazan by mitochondrial dehydrogenases. The concentration of this can then be measured spectrophotoinetrically.
1. MTT Stock (5 mg/ml in sterile PBS) from Böhringer was diluted […] with complete growth medium and sterile filtering.
2. The cells were incubated in 2 ml/10 cm^2 MTT solution at 37° C. for 3 hours.
3. The supernatant was carefully removed.
4. 4 ml/10 cm^2 dimethylsulphoxide (DMSO) was added.
5. The dishes were placed on a shaker until the crystals were completely dissolved.
6. The absorbance of the supernatant (3 aliquots/dish) was read at 550 nm versus DMSO.
If the absorbance was higher than 1, the samples were diluted with DMSO.
The mean value and the standard deviation consisted of n independent experiments. The values for the individual experiments were gained from the mean of 3 aliquots of the same dish. To compare the treatment, contrasts analysis of variance models were evaluated.

[2] = test system: osteoblasts (micromass culture); test: Mineralization, micromass osteoblast cell culture; format: cell-based, rat
Protocol: This isolation technique is based on the ability of osteoblasts to migrate from bone onto a substratum. Parietal and frontal calvariae (4 per animal) were aseptically explanted from 6 day-old IcoIbm rats. The calvariae were placed in Tyrode's balanced salt solution, calcium and magnesium free (TESS). The periosteum was enzymatically removed with 0.05% trypsin and 0.02% collagenase A (0.76 U/mg) dissolved in TBSS (40 calvaria/20 ml). The calvariae were shaken for 70 minutes in a waterbath at 37° C. They were washed with TESS and then transferred to 60 mm culture dishes (40 calvariae/dish) containing 5 ml of 0.02% collagenase A (0.76 U/mg) in culture medium BGJb Fitton-Jackson modification and placed in the incubator for 4 hours. The calvariae were then washed with culture medium B supplemented with 10% foetal calf serum (FCS). The calvariae were transferred into 60 mm culture dishes (4 frontal and 4 parietal/dish). The growth medium supplemented with 10% FCS and 50 μg/ml ascorbate was completely changed every 48 hours. The culture was kept for 3 weeks. After 3 weeks the migrated cells were harvested. The dish was washed with TESS, and 5 ml of TESS containing 0.05% trypsin and 0.02% collagenase A (0.76 U/mg) was added. After 1 hour in the incubator, the dish was washed with culture medium BGJb supplemented with 10% FCS. The dishes containing the calvariae and cells were rinsed with serum containing media BGJb. The cells obtained were filtered through a 40 μm nylon mesh to remove bone debris and cell aggregates. The suspended cells were centrifuged at 600 g for 5 minutes. The cell pellet was resuspended in serum containing medium BGJb and centrifuged. The viability of the resuspended cells was examined by the dye exclusion of 0.4% trypan blue, and the cells were counted in a haeinocytometer. The inoculation densities were 2·10^5/10 cm^2 for monolayer and 2·10^5/30 μl for micromasses. The micromass cultures were kept for 1 hour in the incubator before 2 ml growth medium was added. All the cultures were kept at 37° C. in a humidified atmosphere of 5% CO2, 95% air. All culture media were supplemented with 50 μg/ml ascorbate. To analyze the collagen types, 60 μg/ml beta-aminopropionitrile (beta-APN) was added to the culture medium. During cell isolation and inoculation, no ascorbate was used to increase plating efficiency. No antibiotics and no beta-glycerophosphate were added. The media were completely changed every 48 hours (60 mm culture dish 5 ml; 35 mm culture dish 2 ml). The most specific method for detecting calcified matrices is the von Kossa reaction. Silver staining indicates the presence of calcium phosphate aggregated with certain organic acids. Structural details are completely obscured by the dark precipitate. Calcified tissue components are darkened in various shades from light brown to deep black, irrespective of their mineral content. [table]

Compound | metabolic activity (MTT) (FIG. 2) ([1]; 10 mM and 20 mM creatine vs control, 1 week) | metabolic activity (MTT) (FIG. 2) ([1]; 10 mM creatine vs control, 2 weeks, p<0.015) | metabolic activity (MTT) (FIG. 2) ([1]; 10 mM creatine vs control, 3 weeks, p<0.001) | metabolic activity (MTT) (FIG. 2) ([1]; 20 mM creatine vs control, 2 weeks, p<0.0025) | metabolic activity (MTT) (FIG. 2) ([1]; 20 mM creatine vs control, 3 weeks, p<0.001) | metabolic activity measured by the MTT reaction ([1]; 2 weeks, creatine groups vs control) | MTT reaction ([1]; 3 weeks, creatine vs control) | mineralized area (FIG. 4) ([2]; 10 mM creatine vs control, 2 weeks, p<0.00025) | mineralized area (FIG. 4) ([2]; 10 mM creatine vs control, 3 weeks, p<0.0035) | mineralization (FIG. 4) ([2]; 10 mM creatine, 3 weeks vs 2 weeks, p<0.0015) | mineralized area (FIG. 4) ([2]; 20 mM creatine vs control, 2 weeks, p<0.00025) | mineralized area (FIG. 4) ([2]; 20 mM creatine vs control, 3 weeks, p<0.03) | effects on the metabolism and the viability of the cells ([1]; GPA-treated osteoblasts, summary) | metabolic activity measured by the MTT reaction ([1]; 2 weeks, 10 mM GPA vs control) | MTT reaction ([1]; 3 weeks, 1 mM or 5 mM GPA vs control) | MTT reaction ([1]; 3 weeks, 10 mM GPA vs control)
CN(CC(=O)O)C(=N)N [creatine] | all groups were similar | control group was significantly lower than the 10 mM creatine | significantly higher than the control group | control group was significantly lower than the 10 mM creatine and the 20 mM creatine | significantly higher than the control group | slightly stimulated | stimulated the MTT reaction | significantly more mineralization | significantly higher | significantly higher mineralization | significantly more mineralization | significantly higher | – | – | – | –
N=C(N)NCCC(=O)O [GPA, beta-guanidinopropionic acid] | – | – | – | – | – | – | – | – | – | – | – | – | adverse effects on both the metabolism and the viability of the cells | lower values than the control | lower values than the control | comparable to the control

— US20020039567A1, “Methods of treating bone or cartilage conditions by the administration of creatine” (priority 1998, published 2002)
